According to US20070191373A1, “Heterocyclic compounds for use in the treatment of viral infections” (priority 2003, published 2007):
Like-named read-outs stand apart in the source and are kept apart here.

Columns and labels:
CMV strain Davis = CMV strain Davis induced cytopathicity in HEL cells; assay type: cell-based, cytomegalovirus (CMV); conditions: Human betaherpesvirus 5, 168 h, vs untreated control
Description: (§1) Products where X═Y═N, Z=Q=O, U═V═CH and R^1, R^4 and R^8 are as given in Tables 1 and 2 below embodying the present invention were tested in vitro in tissue cultures for toxicity and for potent antiviral actions with respect to cytomegalovirus (CMV).
EC50/μM CMV Davis is the drug concentration in μM required to reduce by 50% CMV strain Davis induced cytopathicity in human embryonic lung fibroblast (HEL) cells measured 7 days post infection compared to untreated control.
(§2) Further details of the methodology employed can be found in McGuigan et al. J. Med. Chem., 1999, 42, 4479-4484.

CMV strain AD169 = CMV strain AD169 induced cytopathicity in HEL cells; assay type: cell-based, cytomegalovirus (CMV); conditions: Human betaherpesvirus 5, AD169, 168 h, vs untreated control
Description: as §1
EC50/μm CMV-AD169 is the drug concentration in μM required to reduce by 50% CMV strain AD169 induced cytopathicity in human embryonic lung fibroblast (HEL) cells measured 7 days post infection compared to untreated control.
as §2

[1] = Toxicity in tissue culture, reduction of cell number; assay type: cell-based; conditions: human, human embryonic lung fibroblast (HEL) cells, concentration reducing cell number by 50%
Description: as §1
CC50/μM is the compound concentration required to reduce the cell number by 50%.
as §2

[2] = Preliminary rodent trial, bioavailability and half life after i.p. dosing; assay type: in vivo
[3] = not given; remark: listed apart in the source
[4] = Table 1, 7 days post infection, read-out: EC50/μM 1 CMV Davis
[5] = Table 2, 7 days post infection, read-out: EC50/μM 2 CMV Davis

Compound	EC50 (CMV strain Davis; [4]) [µM]	EC50 (CMV strain AD169; Table 1, 7 days post infection) [µM]	EC50 (CMV strain Davis; [5]) [µM]	CC50 ([1]; Table 2) [µM]	EC50 (CMV strain AD169; Table 2, 7 days post infection) [µM]	CC50 ([1]; Table 1) [µM]	further results
CCCCc1cc2cn(C3CCCC3)c(=O)nc2o1 [Cf2158, 6-Butyl-3-cyclopentyl-3H-furo[2,3-d]pyrimidin-2-one]	> 50	> 50					
CCCCc1cc2cnc(OC3CCCC3)nc2o1 [Cf2159, 6-Butyl-2-cyclopentyloxy-furo[2,3-d]pyrimidine]			7	108	8		melting point: 69 to 71 °C
CCCCCCCc1cc2cn(C3CCCC3)c(=O)nc2o1 [Cf2160]	4	5				194	
CCCCCCCc1cc2cnc(OC3CCCC3)nc2o1 [Cf2161, 6-Heptyl-2-cyclopentyloxy-furo[2,3-d]pyrimidine]			5	132	3		bioavailability [2]: significant; visible in vivo toxicity ([3]; 50 mg/kg/day): no visible in vivo toxicity; histology: toxicity against brain, thymus, liver, lungs, kidney, breast, testi, ovum and spleen tissue ([3]; in vivo): no detectable toxicity
CCCCCCCc1cc2cnc(OC(CC)CC)nc2o1 [Cf2189, 6-Heptyl-2-(1-ethyl-propoxy)-furo[2,3-d]pyrimidine]			12	98	> 5		melting point: 70 to 71 °C
CCCCCCCc1cc2cn(C(CC)CC)c(=O)nc2o1 [Cf2190, 6-Heptyl-3-(1-ethyl-propyl)-3H-furo[2,3-d]pyrimidin-2-one]	50	20				> 200	
CCCCCCCc1cc2cnc(OCCCCC)nc2o1 [Cf2191, 6-Heptyl-2-pentyloxy-furo[2,3-d]pyrimidine]			16	1110	> 5		melting point: 48 to 49 °C
CCCCCCCc1cc2cn(CCCCC)c(=O)nc2o1 [Cf2192, 6-Heptyl-3-pentyl-3H-furo[2,3-d]pyrimidin-2-one]	> 200	> 200				> 200	
CCCCc1cc2cnc(OC(CC)CC)nc2o1 [Cf2193, 6-Butyl-2-(1-ethyl-propoxy)-furo[2,3-d]pyrimidine]			> 20	98	> 20		
CCCCc1cc2cn(C(CC)CC)c(=O)nc2o1 [Cf2194, 6-Butyl-3-(1-ethyl-propyl)-3H-furo[2,3-d]pyrimidin-2-one]	> 200	> 50				> 200	
CCCCCn1cc2cc(CCCC)oc2nc1=O [Cf2195, 6-Butyl-3-pentyl-3H-furo[2,3-d]pyrimidin-2-one]	> 50	> 50				> 200	
CCCCCCCc1cc2cn(C3CCCO3)c(=O)nc2o1 (centres unmarked) [Cf2196, 6-Heptyl-3-(tetrahydro-furan-2-yl)-3H-furo[2,3-d]pyrimidin-2-one]	> 20	> 20				46	
CCCCCCCCCCc1cc2cnc(OCCCCC)nc2o1 [Cf2247]			> 200	> 200	> 200		
CCCCCCCCCCc1cc2cn(C3CCCO3)c(=O)nc2o1 (centres unmarked) [Cf2249, 6-Decyl-3-(tetrahydro-furan-2′-yl)-2,3-dihydrofuro[2,3-d]pyrimidin-2-one]	50	> 50				> 200	
CCCCCCCCCCc1cc2cnc(OC3CCCC3)nc2o1 [Cf2250, 2-Cyclopentyloxy-6decyl-2,3-dihydrofuro[2,3-d]pyrimidine]			> 50	> 200	> 50		
CCCCCCCCCCc1cc2cnc(OC(CC)CC)nc2o1 [Cf2252]			10	127	16		
CCCCCCCCCCc1cc2cnc(OCC3CCCCC3)nc2o1 [Cf2274, 2-Cyclohexylmethoxy-6-decyl-furo[2,3-d]pyrimidine]			2.9	> 200	4.4		
CCCCCCCCCCc1cc2cn(CC3CCCCC3)c(=O)nc2o1 [Cf2275, 3-Cyclohexylmethyl-6-decyl-3H-furo[2,3-d]pyrimidin-2-one]	> 200	> 200				> 200	
CCCCCCCCCCc1cc2cn(C3CCOC3)c(=O)nc2o1 (centres unmarked) [Cf2276, 6-Decyl-3-(tetrahydro-furan-3-yl)-3H-furo[2,3-d]pyrimidin-None]	10	20				148	

Compound	EC50 (CMV strain Davis; [4]) [µM]	EC50 (CMV strain AD169; Table 1, 7 days post infection) [µM]	EC50 (CMV strain Davis; [5]) [µM]	CC50 ([1]; Table 2) [µM]	EC50 (CMV strain AD169; Table 2, 7 days post infection) [µM]	CC50 ([1]; Table 1) [µM]	further results
CCCCCCCCCCc1cc2cnc(OC3CCCCC3)nc2o1 [Cf2294]			16	> 200	12		
CCCCCCCCCCc1cc2cn(C3CCCCC3)c(=O)nc2o1 [Cf2295, 3-Cyclohexyl-6-decyl-2,3-dihydrofuro[2,3-d]pyrimidin-2-one]	50	38				> 200	
CCCCCCCCCCc1cc2cnc(OCCC)nc2o1 [Cf2303, 6-Decyl-2-propoxy-furo[2,3-d]pyrimidine]			2.1	126	2.5		
CCCCCCCCCCc1cc2cn(CCC)c(=O)nc2o1 [Cf2304, 6-Decyl-3-propyl-3H-furo[2,3-d]pyrimidin-2-one]	8	40				> 200	
CCCCCCCCCCc1cc2cnc(OCCCC)nc2o1 [Cf2305, 2-Butoxy-6decyl-furo[2,3-a]pyrimidine]			2.7	> 200	3.9		
CCCCCCCCCCc1cc2cn(CCCC)c(=O)nc2o1 [Cf2306, 3-Butyl-6-decyl-3H-furo[2,3-d]pyrimidin-2-one]	> 200	> 200				> 200	
CCCCCCCCCCc1cc2cnc(OCc3ccccc3)nc2o1 [Cf2307, 2-Benzyloxy-6-decyl-furo[2,3-d]pyrimidine]			1.1	> 200	3.3		
CCCCCCCCCCc1cc2cn(Cc3ccccc3)c(=O)nc2o1 [Cf2308, 3-Benzyl-6-decyl-3H-furo[2,3-d]pyrimidin-2-one]	> 40	> 40				> 200	
CCCCCCCCCCc1cc2cn(CC3CCCO3)c(=O)nc2o1 (centres unmarked) [Cf2309, 6-Decyl-3-(tetrahydro-furan-2-ylmethyl)-3H-furo[2,3-d]pyrimidin-2-one]	0.84	0.78				49	
CCCCCCCCCCc1cc2cnc(OCc3ccc(C)cc3)nc2o1 [Cf2313, 6-Decyl-2-(4-methylbenzyloxy)-3H-furo[2,3-d]pyrimidine]			3.9	> 200	10.5		
CCCCCCCCCCc1cc2cn(Cc3ccc(C)cc3)c(=O)nc2o1 [Cf2314, 6-Decyl-3-(4-methylbenzyl)-3H-furo[2,3-d]pyrimidin-2-one]	> 40	> 40				> 200	
CCCCCCCCCCc1cc2cnc(OCc3ccc(OC)cc3)nc2o1 [Cf2315, 6-Decyl-2-(4-methoxybenzyloxy)-3H-furo[2,3-a]pyrimidine]			2.9	> 200	3.3		
CCCCCCCCCCc1cc2cn(Cc3ccc(OC)cc3)c(=O)nc2o1 [Cf2316, 6-Decyl-3-(4-methoxybenzyl)-3H-furo[2,3-d]pyrimidin-2-one]	> 200	> 200				> 200	
CCCCCCc1cc2cn(C)c(=O)nc2o1 [Cf2344, 6-Hexyl-3-methyl-3H-furo[2,3-d]pyrimidin-2-one]	20	18					
CCCCCCc1cc2cnc(OCCCC)nc2o1 [Cf2346, 2-Butyloxy-6-hexyl-furo[2,3-d]pyrimidine]			3		8		
CCCCCCc1cc2cnc(OCc3ccccc3)nc2o1 [Cf2348, 2-Benzyloxy-6-hexyl-furo[2,3-d]pyrimidine]			> 3.6		> 200		
CCCCCCc1cc2cn(Cc3ccccc3)c(=O)nc2o1 [Cf2349, 3-Benzyl-6-hexyl-3H-furo[2,3-d]pyrimidin-2-one]	> 200	> 200					
CCCCCOc1ncc2cc(CCCC)oc2n1 [Cf 2327]							melting point: 51 to 52 °C
